# Experiments:
# U251 cells [1] = assay: XTT cell viability, liposome TMZ vs free TMZ; type: cell-based, human; conditions: at 16-46.3 μM TMZ
# Method: Studies were carried out to compare the efficacy of standard free (unencapsulated) TMZ; and unliganded TMZ-containing liposomes (Lip-TMZ) The Lip-TMZ was prepared as described above in Example 1 using a liposome concentration of 2 mM. The zeta potentials of the Lip-TMZ molecules ranged from 35.6-40.1 mV. The TMZ concentration used was varied from 1 to about 250 uM. The ratios of Liposome to TMZ was 0.5:1, 1:1 or 2:1 (molar ratio).
# Human brain tumor derived U251 cells were plated in triplicate at 2×10^3 per well in a 96-well plate. Following overnight incubation, the medium was replaced with serum-free medium, overlaid with 100 μL of indicated concentrations of either Lip-TMZ, or free TMZ, incubated for 5 h, and then supplemented with fetal bovine serum. After incubation for an additional 91 h, cell viability was determined by the XTT assay as described previously (Rait A, Pirollo K F, Rait V, et al. Inhibitory effects of the combination of HER-2 antisense oligonucleotide and chemotherapeutic agents used for the treatment of human breast cancer. Cancer Gene Ther 2001; 8:728-39.). Formazan absorbance, which correlates to cell viability, was measured at 450 nm using a microplate reader (Bio-Rad, Hercules, Calif.).
# U87 cells [2] = assay: XTT cell viability, Lip-TMZ vs free TMZ; type: cell-based, human
# U251 cells [3] = assay: XTT sensitization to TMZ by scL-p53; type: cell-based, human; conditions: XTT 144 h after TMZ addition
# Method: (§1) To assess the ability of scL delivered wtp53 to sensitize brain tumor cells to first-line chemotherapeutic agent TMZ, human brain tumor derived U87 and U251 cells were treated with TMZ alone, or the combination of TMZ plus scL-p53 (prepared as described in U.S. Pat. No. 7,780,882). As a control, cells were also treated with the combination of TMZ and the scL delivery system carrying the same vector used to construct the pSCMVp53 plasmid, but without the p53 insert (scL-vec). The cells were plated in a 96-well plate and treated 24 hours later with scL-p53 or scL-vec. 6 hours post-transfection, the TMZ was added in increasing concentrations. […] As these two cell lines are known to be sensitive to TMZ, it was not unexpected that there was some response to TMZ alone.
# U87 cells [4] = assay: XTT sensitization to TMZ by scL-p53; type: cell-based, human; conditions: XTT 144 h after TMZ addition
# Method: as §1
# T98G cells = conditions: TMZ resistant T98G, XTT
# Description: The in vitro cell killing ability of the scL-TMZ was compared to free, unencapsulated TMZ in TMZ resistant human brain tumor cell line T98G using the XTT assay.
# [5] = test system: glioblastoma multiforme / anaplastic astrocytoma; conditions: cited from earlier work
compound,measurement,setting,value
"Cn1nnc2c(C(N)=O)ncn2c1=O [TMZ, temozolomide]",cell killing effect,U251 cells [1],virtually no cell killing effect
same,cell killing effect,U87 cells [2],virtually no cell killing effect
same,sensitization/response to TMZ,U251 cells [3],some response
same,sensitization/response to TMZ,U87 cells [4],some response
same,IC50,T98G cells,> 1 mM
same,AA patients who do not benefit from TMZ,"[5]; human, in vivo",50%
same,GBM patients who do not benefit from TMZ,"[5]; human, in vivo",60-75%
same,median increase in survival compared to radiation alone,[5]; subset of GBM patients,2.5 months
